According to publication PMC7180948, “New Insights into 4-Anilinoquinazolines as Inhibitors of Cardiac Troponin I–Interacting Kinase (TNNi3K)” (Molecules, 2020):

What was measured:
Test in all cases: biochemical
Set-up in all cases: KINOMEscan competition binding panel (Eurofins DiscoverX), single concentration, percent inhibition
Conditions in all cases: read-out: 15 at 1 µM % inhibition
TAOK1 = TAOK1 (Homo sapiens, UniProt Q7L7X3)
In short: (§1)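 Compounds were submitted at 1 µM to a KINOMEscan assay covering more than 400 human kinases. The screen served to define the selectivity profile.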

DMPK2 = molecular target: T1, DMPK2 (Homo sapiens, UniProt Q6DT37)
T1 construct: gene CDC42BPG
T1 sequence (Q6DT37 whole entry): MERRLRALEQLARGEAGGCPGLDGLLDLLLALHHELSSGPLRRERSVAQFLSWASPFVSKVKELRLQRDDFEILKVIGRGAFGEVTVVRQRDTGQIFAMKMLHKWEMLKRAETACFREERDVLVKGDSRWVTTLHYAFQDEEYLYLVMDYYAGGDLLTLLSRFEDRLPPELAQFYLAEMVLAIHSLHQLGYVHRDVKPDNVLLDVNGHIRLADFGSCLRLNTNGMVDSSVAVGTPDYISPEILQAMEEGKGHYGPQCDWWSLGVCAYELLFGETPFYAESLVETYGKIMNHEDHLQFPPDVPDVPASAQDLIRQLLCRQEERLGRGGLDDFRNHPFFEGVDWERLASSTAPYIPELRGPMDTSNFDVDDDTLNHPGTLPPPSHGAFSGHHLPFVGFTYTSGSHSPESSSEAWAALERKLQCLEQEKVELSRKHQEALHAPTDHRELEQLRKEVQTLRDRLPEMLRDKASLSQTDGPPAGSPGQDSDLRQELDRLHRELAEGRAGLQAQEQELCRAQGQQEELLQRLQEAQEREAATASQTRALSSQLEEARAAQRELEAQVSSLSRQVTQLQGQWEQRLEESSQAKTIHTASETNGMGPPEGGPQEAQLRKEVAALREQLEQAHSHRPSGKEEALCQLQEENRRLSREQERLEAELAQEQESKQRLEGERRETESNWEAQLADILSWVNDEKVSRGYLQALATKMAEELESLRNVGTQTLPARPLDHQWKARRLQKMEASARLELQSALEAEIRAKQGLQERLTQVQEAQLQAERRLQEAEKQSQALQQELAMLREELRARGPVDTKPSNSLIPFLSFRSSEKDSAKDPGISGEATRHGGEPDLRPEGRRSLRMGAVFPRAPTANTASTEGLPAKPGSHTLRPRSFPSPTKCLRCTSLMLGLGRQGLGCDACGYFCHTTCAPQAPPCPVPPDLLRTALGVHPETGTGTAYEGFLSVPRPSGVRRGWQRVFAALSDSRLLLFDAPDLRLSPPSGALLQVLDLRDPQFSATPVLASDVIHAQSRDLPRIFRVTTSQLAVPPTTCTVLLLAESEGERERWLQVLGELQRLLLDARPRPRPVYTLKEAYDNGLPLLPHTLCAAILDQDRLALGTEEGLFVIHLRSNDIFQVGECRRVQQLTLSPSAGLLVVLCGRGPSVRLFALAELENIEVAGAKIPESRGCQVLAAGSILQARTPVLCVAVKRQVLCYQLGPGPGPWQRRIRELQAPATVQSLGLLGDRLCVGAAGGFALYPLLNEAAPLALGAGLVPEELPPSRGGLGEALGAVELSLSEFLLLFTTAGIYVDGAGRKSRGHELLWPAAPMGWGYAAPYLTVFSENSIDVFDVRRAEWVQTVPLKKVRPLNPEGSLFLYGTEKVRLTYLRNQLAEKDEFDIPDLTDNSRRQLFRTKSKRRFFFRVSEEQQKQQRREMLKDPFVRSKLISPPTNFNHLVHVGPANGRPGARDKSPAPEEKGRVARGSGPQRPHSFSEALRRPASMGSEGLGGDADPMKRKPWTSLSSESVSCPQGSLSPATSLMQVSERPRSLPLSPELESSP
In short: as §1

S6K1 = molecular target: T2, S6K1 (Homo sapiens, UniProt P23443)
T2 construct: gene RPS6KB1
In short: as §1

SLK = SLK (Homo sapiens, UniProt Q9H2G2)
Sequence of SLK (Q9H2G2 whole entry): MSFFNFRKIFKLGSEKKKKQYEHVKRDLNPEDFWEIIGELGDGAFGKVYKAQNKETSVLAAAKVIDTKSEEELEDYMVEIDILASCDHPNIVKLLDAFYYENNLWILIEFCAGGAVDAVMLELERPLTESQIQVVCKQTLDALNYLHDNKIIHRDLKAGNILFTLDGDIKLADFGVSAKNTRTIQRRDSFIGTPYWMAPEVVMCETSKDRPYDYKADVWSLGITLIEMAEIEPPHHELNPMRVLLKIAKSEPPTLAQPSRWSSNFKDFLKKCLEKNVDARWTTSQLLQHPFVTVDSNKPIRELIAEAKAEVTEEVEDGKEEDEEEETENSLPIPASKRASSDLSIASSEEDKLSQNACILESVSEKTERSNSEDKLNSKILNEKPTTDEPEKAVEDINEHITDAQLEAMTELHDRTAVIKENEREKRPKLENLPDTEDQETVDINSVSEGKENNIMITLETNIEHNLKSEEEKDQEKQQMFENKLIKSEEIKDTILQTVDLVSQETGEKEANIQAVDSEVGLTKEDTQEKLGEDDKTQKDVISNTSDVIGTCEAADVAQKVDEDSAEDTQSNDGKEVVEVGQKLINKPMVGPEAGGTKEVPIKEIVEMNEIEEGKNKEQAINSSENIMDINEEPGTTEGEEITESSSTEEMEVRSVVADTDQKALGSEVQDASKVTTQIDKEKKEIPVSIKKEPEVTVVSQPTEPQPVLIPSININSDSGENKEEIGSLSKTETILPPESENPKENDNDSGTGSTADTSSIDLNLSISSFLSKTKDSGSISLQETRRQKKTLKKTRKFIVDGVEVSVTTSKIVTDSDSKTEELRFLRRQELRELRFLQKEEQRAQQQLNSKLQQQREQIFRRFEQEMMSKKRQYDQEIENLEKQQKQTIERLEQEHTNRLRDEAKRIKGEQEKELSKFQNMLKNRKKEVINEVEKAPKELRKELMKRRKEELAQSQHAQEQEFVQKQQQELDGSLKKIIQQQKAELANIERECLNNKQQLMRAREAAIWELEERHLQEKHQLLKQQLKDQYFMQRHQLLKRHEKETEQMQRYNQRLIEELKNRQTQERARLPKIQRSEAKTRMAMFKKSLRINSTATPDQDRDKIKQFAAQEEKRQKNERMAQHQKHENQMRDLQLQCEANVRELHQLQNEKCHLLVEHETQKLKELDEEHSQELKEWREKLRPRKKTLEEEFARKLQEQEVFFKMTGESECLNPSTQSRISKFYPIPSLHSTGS
In short: as §1

FLT3 = FLT3 (Homo sapiens, UniProt P36888)
Sequence of FLT3 (P36888 whole entry): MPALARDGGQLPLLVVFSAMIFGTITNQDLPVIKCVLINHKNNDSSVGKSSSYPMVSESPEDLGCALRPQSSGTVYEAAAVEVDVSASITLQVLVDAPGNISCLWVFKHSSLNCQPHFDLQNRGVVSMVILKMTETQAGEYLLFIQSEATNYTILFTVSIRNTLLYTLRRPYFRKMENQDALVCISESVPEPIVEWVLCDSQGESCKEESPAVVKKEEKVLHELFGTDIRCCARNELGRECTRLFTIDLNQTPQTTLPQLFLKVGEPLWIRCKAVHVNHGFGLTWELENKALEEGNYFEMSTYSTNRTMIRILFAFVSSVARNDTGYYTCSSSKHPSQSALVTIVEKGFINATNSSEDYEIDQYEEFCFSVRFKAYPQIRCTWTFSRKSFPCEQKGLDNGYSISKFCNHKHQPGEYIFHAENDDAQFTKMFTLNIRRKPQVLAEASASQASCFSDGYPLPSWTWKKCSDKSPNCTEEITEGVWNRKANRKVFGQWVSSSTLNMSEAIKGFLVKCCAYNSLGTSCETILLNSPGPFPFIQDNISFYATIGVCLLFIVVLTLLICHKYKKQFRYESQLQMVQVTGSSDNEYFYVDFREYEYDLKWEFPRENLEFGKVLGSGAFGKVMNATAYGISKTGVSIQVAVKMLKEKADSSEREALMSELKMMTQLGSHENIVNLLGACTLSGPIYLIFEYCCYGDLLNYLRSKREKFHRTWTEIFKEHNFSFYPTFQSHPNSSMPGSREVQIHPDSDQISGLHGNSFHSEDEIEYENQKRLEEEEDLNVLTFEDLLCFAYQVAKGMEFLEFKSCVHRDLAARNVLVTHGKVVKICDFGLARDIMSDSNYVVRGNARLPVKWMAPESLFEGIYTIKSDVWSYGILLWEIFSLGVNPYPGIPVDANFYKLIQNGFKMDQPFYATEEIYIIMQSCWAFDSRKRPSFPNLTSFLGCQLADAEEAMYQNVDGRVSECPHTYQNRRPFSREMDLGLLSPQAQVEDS
In short: as §1

EGFR(L858R) = EGFR(L858R) (Homo sapiens, UniProt P00533, L858R)
In short: as §1

FYN = FYN (Homo sapiens, UniProt P06241)
In short: as §1

FER = FER (Homo sapiens, UniProt P16591)
In short: as §1

MYO3A = MYO3A (Homo sapiens, UniProt Q8NEV4)
In short: as §1

AMPK-alpha2 = molecular target: T3, AMPK-alpha2 (Homo sapiens, UniProt P54646)
T3 construct: gene PRKAA2
In short: as §1

MEK2 = molecular target: T4, MEK2 (Homo sapiens, UniProt P36507)
T4 construct: gene MAP2K2
T4 sequence (P36507 whole entry): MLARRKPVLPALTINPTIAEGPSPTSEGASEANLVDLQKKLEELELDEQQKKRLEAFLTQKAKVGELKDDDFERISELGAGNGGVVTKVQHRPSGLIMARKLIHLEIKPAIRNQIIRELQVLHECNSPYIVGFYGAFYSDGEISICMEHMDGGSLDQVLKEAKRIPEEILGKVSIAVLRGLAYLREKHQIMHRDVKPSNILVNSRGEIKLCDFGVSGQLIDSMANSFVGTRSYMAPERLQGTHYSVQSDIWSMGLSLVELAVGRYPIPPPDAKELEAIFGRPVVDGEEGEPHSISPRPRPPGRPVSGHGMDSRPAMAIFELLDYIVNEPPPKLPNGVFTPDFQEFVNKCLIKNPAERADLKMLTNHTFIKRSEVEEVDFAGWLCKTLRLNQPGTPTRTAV
In short: as §1

CSF1R-autoinhibited = CSF1R-autoinhibited (Homo sapiens, UniProt P07333)
In short: as §1

CAMK1B = molecular target: T5, CAMK1B (Homo sapiens, UniProt Q6P2M8)
T5 construct: gene PNCK
In short: as §1

HASPIN = HASPIN (Homo sapiens, UniProt Q8TF76)
Sequence of HASPIN (Q8TF76 whole entry): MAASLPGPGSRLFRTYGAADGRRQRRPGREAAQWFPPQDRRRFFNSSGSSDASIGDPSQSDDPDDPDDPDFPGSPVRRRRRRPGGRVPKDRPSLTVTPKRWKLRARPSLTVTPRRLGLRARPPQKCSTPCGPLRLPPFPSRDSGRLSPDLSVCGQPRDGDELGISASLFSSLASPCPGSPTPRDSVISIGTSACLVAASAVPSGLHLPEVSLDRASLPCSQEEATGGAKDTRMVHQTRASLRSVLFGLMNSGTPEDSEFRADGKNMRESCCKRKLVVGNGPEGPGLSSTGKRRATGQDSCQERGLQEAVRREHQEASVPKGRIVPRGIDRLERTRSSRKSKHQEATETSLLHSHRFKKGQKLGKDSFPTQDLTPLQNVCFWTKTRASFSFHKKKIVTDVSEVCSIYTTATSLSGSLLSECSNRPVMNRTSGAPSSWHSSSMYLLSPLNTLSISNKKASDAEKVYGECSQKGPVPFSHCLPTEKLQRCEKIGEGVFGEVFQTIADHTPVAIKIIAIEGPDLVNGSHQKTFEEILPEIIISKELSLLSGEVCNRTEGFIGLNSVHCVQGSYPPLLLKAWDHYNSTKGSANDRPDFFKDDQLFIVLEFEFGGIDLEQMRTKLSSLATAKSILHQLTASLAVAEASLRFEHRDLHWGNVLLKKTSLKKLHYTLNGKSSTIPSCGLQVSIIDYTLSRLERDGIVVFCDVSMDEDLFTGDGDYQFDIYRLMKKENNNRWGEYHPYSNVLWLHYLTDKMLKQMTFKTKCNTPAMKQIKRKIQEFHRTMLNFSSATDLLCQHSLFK
In short: as §1

MEK4 = molecular target: T6, MEK4 (Homo sapiens, UniProt P45985)
T6 construct: gene MAP2K4
In short: as §1

TNNI3K = TNNI3K (Homo sapiens, UniProt Q59H18)
In short: as §1

ASK1 = molecular target: T7, ASK1 (Homo sapiens, UniProt Q99683)
T7 construct: gene MAP3K5
In short: as §1

BTK = BTK (Homo sapiens, UniProt Q06187)
In short: as §1

KIT(A829P) = KIT(A829P) (Homo sapiens, UniProt P10721, A829P)
In short: as §1

PIK3CB = PIK3CB (Homo sapiens, UniProt P42338)
In short: as §1

MAP3K1 = MAP3K1 (Homo sapiens, UniProt Q13233)
In short: as §1

JNK1 = molecular target: T8, JNK1 (Homo sapiens, UniProt P45983)
T8 construct: gene MAPK8
In short: as §1

[1] = molecular target: T9, ABL1(Q252H)-phosphorylated (Homo sapiens, UniProt P00519, Q252H)
T9 construct: phosphorylated
In short: as §1

EPHB3 = EPHB3 (Homo sapiens, UniProt P54753)
In short: as §1

CNS(=O)(=O)c1ccc(N(C)C)c(Nc2nc(C)nc3cc(OC)c(OC)cc23)c1 [compound 15, 3-((6,7-dimethoxy-2-methylquinazolin-4-yl)amino)-4-(dimethylamino)-N-methylbenzenesulfonamide]
inhibition at 1 µM (TAOK1): 15% | inhibition at 1 µM (DMPK2): 5% | inhibition at 1 µM (S6K1): 20% | inhibition at 1 µM (SLK): 0% | inhibition at 1 µM (FLT3): 10% | inhibition at 1 µM (EGFR(L858R)): 4% | inhibition at 1 µM (FYN): 0% | inhibition at 1 µM (FER): 0% | inhibition at 1 µM (MYO3A): 0% | inhibition at 1 µM (AMPK-alpha2): 2% | inhibition at 1 µM (MEK2): 10% | inhibition at 1 µM (CSF1R-autoinhibited): 32% | inhibition at 1 µM (CAMK1B): 28% | inhibition at 1 µM (HASPIN): 0% | inhibition at 1 µM (MEK4): 25% | inhibition at 1 µM (TNNI3K): 7% | inhibition at 1 µM (ASK1): 0% | inhibition at 1 µM (BTK): 26% | inhibition at 1 µM (KIT(A829P)): 42% | inhibition at 1 µM (PIK3CB): 25% | inhibition at 1 µM (MAP3K1): 27% | inhibition at 1 µM (JNK1): 14% | inhibition at 1 µM [1]: 34% | inhibition at 1 µM (EPHB3): 0%
